Tests used:
Experiment in all cases: In vitro cell proliferation assay (WST.1, Table 5)
CCD967 = format: cell-based; conditions: Homo sapiens, CCD-967, 72 h; CCD967 normal skin line, day 3
Procedure: (§1) These cell lines were grown in Iscove's MDM supplemented with 5% fetal calf serum (FCS), 50 μM 2-mercaptoethanol, 100 μg/ml penicillin, and 100 μg/ml streptomycin. Cell lines growing in suspension were maintained at 0.5-1.5×10^6 cell/ml, while adherent cell lines were maintained at subconfluent densities.
(§2) Cell lines were seeded in triplicate at 10^4 cells/100 μl in 96-well plates. Peripheral blood mononuclear cells were seeded in triplicate at 10^5 cells/100 μl in 96-well plate. Different test compounds were added immediately at final concentrations ranging between 0 to 100 μM. All compounds were dissolved in sterile deionized water, so water was added to the control wells. On day 3, WST.1 assay (Roche) was used to measure the effect of different test compounds on cell growth. WST.1 assay is a calorimetric assay for the nonradioactive quantification of cell proliferation, cell viability, and cytotoxicity. The assay was performed according to manufacturer's instructions (Roche). It relies on the cleavage by cellular enzymes of WST.1 (water soluble tetrazolium salt: 4-[3-(4-iodophenyl)-2-(4-nitrophenyl)-2H-5-tetrazolio]-1,3-benzene disulfonate) to formazan. The amount of formazan dye formed correlates to the number of metabolically active cells in the culture and is readily read in an ELISA microplate reader using an absorbance wavelength of 440 nm. These OD values are plotted against concentrations of different compounds and IC50 is determined for each compound.

COLO205 = format: cell-based; conditions: Homo sapiens, COLO 205, 72 h; COLO205, day 3
Procedure: as §1, §2

HS58T = format: cell-based; conditions: Homo sapiens, 72 h, day 3
Procedure: as §1, §2

MCF7 = format: cell-based; conditions: Homo sapiens, 72 h; MCF7, day 3
Procedure: as §1, §2

MDA468 = format: cell-based; conditions: Homo sapiens, 72 h; MDA468, day 3
Procedure: as §1, §2

OCI-AML-1 = format: cell-based; conditions: Homo sapiens, 72 h; OCI-AML-1, day 3
Procedure: as §1, §2

OCI-AML-2 = format: cell-based; conditions: Homo sapiens, OCI-AML2, 72 h; OCI-AML-2, day 3
Procedure: as §1, §2

OCI-Ly-7 = format: cell-based; conditions: Homo sapiens, OCI-Ly7, 72 h; OCI-Ly-7, day 3
Procedure: as §1, §2

OCI-My-2 = format: cell-based; conditions: Homo sapiens, 72 h; OCI-My-2, day 3
Procedure: as §1, §2

OCVR4 = format: cell-based; conditions: Homo sapiens, 72 h; OCVR4, day 3
Procedure: as §1, §2

PC3 = format: cell-based; conditions: Homo sapiens, PC-3, 72 h; PC3, day 3
Procedure: as §1, §2

SKW3 = format: cell-based; conditions: Homo sapiens, 72 h; SKW3, day 3
Procedure: as §1, §2

SNB19 = format: cell-based; conditions: Homo sapiens, SNB-19, 72 h; SNB19, day 3
Procedure: as §1, §2

T47D = format: cell-based; conditions: Homo sapiens, 72 h, day 3
Procedure: as §1, §2

LOX = format: cell-based, human; conditions: Homo sapiens, 72 h, day 3
Procedure: as §1, §2

IC50 (COLO205) [µM]	IC50 (MCF7) [µM]	IC50 (OCI-AML-1) [µM]	IC50 (OCI-AML-2) [µM]	IC50 (OCI-Ly-7) [µM]	IC50 (OCI-My-2) [µM]	IC50 (PC3) [µM]	IC50 (SKW3) [µM]	IC50 (T47D) [µM]	SMILES	IC50 (CCD967) [µM]	IC50 (HS58T) [µM]	IC50 (MDA468) [µM]	IC50 (OCVR4) [µM]	IC50 (SNB19) [µM]	IC50 (LOX) [µM]
–	> 50	> 50	> 50	> 50	> 50	–	> 50	–	Cc1cc(=O)[nH]c(=O)n1C1CC(O)C(CO)O1 (stereo not drawn)	–	–	> 50	–	–	> 50
> 50	> 50	> 50	> 50	> 50	> 50	> 50	> 50	> 50	Cc1cc(=O)[nH]c(=O)n1C1OC(CO)C(O)C1O (stereo not drawn)	> 50	> 50	> 50	> 50	> 50	> 50
> 50	> 50	15.3	> 50	> 50	27.8	> 50	18.9	> 50	O=c1cc(I)n([C@@H]2O[C@H](CO)C(O)C2O)c(=O)[nH]1 (stereo partly drawn)	> 50	> 50	> 50	> 50	> 50	> 50
> 50	> 50	> 50	> 50	> 50	> 50	> 50	> 50	> 50	CNc1cc(=O)[nH]c(=O)n1C1OC(CO)C(O)C1O (stereo not drawn)	> 50	> 50	> 50	> 50	> 50	> 50
> 50	> 50	> 50	> 50	> 50	> 50	> 50	> 50	> 50	Nc1cc(=O)[nH]c(=O)n1[C@@H]1O[C@H](CO)C(O)C1O (stereo partly drawn)	> 50	> 50	> 50	> 50	> 50	> 50

Further lines, the compound ahead of its results:

SMILES	IC50 (COLO205) [µM]	IC50 (MCF7) [µM]	IC50 (OCI-AML-1) [µM]	IC50 (OCI-AML-2) [µM]	IC50 (OCI-Ly-7) [µM]	IC50 (OCI-My-2) [µM]	IC50 (PC3) [µM]	IC50 (SKW3) [µM]	IC50 (T47D) [µM]	IC50 (CCD967) [µM]	IC50 (HS58T) [µM]	IC50 (MDA468) [µM]	IC50 (OCVR4) [µM]	IC50 (SNB19) [µM]	IC50 (LOX) [µM]
N#Cc1cc(=O)[nH]c(=O)n1[C@@H]1O[C@H](CO)C(O)C1O (stereo partly drawn)	> 50	> 50	> 50	> 50	> 50	> 50	> 50	> 50	> 50	> 50	> 50	> 50	> 50	> 50	> 50
O=C1C/C(=N\O)N(C2OC(CO)C(O)C2O)C(=O)N1 (stereo not drawn)	–	> 50	> 50	> 50	> 50	> 50	–	> 50	–	–	–	> 50	–	–	> 50
CC(=O)OCC1OC(n2c(I)cc(=O)[nH]c2=O)C(O)C1O (stereo not drawn)	> 50	4.4	15.2	11.7	36.2	1.3	> 50	1.6	> 50	> 50	> 50	> 50	> 50	> 50	1.1
[N-]=[N+]=Nc1cc(=O)[nH]c(=O)n1[C@@H]1O[C@H](CO)C(O)C1O (stereo partly drawn)	> 50	> 50	> 50	> 50	> 50	> 50	> 50	> 50	> 50	> 50	> 50	> 50	> 50	> 50	> 50
O=c1[nH]c(=O)n([C@@H]2O[C@H](CO)C(O)C2O)c(I)c1Br (stereo partly drawn)	> 50	> 50	> 50	> 50	> 50	> 50	> 50	> 50	> 50	> 50	> 50	> 50	> 50	> 50	> 50
CN(C)c1cc(=O)[nH]c(=O)n1C1OC(CO)C(O)C1O (stereo not drawn)	> 50	> 50	> 50	> 50	> 50	> 50	> 50	> 50	> 50	> 50	> 50	> 50	> 50	> 50	> 50
O=c1[nH]cc(F)c(=O)[nH]1 [5-Fluoro-uracil, reference compound]	–	–	1	1.6	–	–	–	2.1	–	–	–	–	–	–	–
O=Cc1cc(=O)[nH]c(=O)n1C1OC(CO)C(O)C1O (stereo not drawn)	–	> 50	> 50	> 50	> 50	> 50	–	> 50	–	–	–	> 50	–	–	> 50
CCOC(=O)c1cc(=O)[nH]c(=O)n1[C@@H]1O[C@H](CO)C(O)C1O (stereo partly drawn)	> 50	> 50	> 50	> 50	> 50	42.3	> 50	> 50	> 50	> 50	> 50	> 50	> 50	> 50	> 50
